We go through 1 compound from patent EP0028689A1, “Antimycotic agents containing acylated triazolyl-gamma-fluoropinacolyl derivatives, and their preparation” (BAYER AG, priority 1979, dated 1981).

The subject of the assay is Candida. In words: Antimicrobial in-vivo activity (oral) in mouse candidosis. The following applies: mice infected i.v. with Candida cells; 100 mg/kg oral one hour before and seven hours after infection; survivors on day 6 p.i.

SMILES strings stand for the structures.

Procedure: Versuchsbeschreibung: • Mäuse vom Typ SPF-CF1 wurden intravenös mit 1-2 x 10 logaritmisch wachsenden Candida-Zellen, die in physiologischer Kochsalzlösung suspendiert waren, infiziert. Eine Stunde vor und sieben Stunden nach der Infektion wurden die Tiere mit jeweils 100 mg/kg Körpergewicht der Präparate oral behandelt.
+++++ = sehr gute Wirkung = ≥ 90% Überlebende am 6.Tag p.i. ++++ = gute Wirkung = ≥30% Überlebende am 6.Tag p.i. +++ = Wirkung = ≥60% Überlebende am 6.Tag p.i. ++ = schwache Wirkung = ≥40% Überlebende am 6.Tag p.i. + = Spur Wirkung k.W.= keine Wirkung

As for `CC(=O)OC(C(Oc1ccc(Cl)cc1C)n1cncn1)C(C)(C)C` (stereo not shown), the Wirkung result is given as “k.W”.
